Reference: patent US4550186A, “Binuclear copper (II) carboxylates formed from amine-carboxyboranes” (Duke University, priority 1983, dated 1985)
pIC50: −log10 of the molar value.

Key:
[1] = biological target: T1, ribonucleotide reductase (Mus musculus, UniProt P07742+P11157); assay: In vitro ribonucleotide reductase activity; type: biochemical; settings: 0.25 to 1.0 mM
T1 construct: endogenous in cells; host or cells: Ehrlich ascites tumor cells
T1 sequence (P07742 1-792): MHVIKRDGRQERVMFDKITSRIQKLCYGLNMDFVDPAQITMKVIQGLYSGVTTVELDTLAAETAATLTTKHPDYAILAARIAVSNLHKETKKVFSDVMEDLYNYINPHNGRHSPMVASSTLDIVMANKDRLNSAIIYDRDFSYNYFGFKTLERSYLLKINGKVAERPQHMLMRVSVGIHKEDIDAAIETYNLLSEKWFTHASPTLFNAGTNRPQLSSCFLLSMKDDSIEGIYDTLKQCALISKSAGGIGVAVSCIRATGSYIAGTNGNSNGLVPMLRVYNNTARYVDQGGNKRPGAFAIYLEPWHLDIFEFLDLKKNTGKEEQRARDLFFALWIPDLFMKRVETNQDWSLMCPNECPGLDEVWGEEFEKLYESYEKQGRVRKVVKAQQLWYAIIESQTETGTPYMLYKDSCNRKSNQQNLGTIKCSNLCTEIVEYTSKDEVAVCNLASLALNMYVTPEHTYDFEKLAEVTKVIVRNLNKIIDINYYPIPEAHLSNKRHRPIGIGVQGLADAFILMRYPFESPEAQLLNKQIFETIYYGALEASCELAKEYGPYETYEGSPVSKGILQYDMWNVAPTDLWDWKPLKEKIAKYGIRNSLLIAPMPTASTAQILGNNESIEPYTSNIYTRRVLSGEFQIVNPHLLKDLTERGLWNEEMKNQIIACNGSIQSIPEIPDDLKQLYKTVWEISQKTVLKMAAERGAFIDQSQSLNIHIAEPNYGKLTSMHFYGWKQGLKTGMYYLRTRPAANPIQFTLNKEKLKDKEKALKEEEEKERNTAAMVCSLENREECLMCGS
T1 sequence (P11157 1-390): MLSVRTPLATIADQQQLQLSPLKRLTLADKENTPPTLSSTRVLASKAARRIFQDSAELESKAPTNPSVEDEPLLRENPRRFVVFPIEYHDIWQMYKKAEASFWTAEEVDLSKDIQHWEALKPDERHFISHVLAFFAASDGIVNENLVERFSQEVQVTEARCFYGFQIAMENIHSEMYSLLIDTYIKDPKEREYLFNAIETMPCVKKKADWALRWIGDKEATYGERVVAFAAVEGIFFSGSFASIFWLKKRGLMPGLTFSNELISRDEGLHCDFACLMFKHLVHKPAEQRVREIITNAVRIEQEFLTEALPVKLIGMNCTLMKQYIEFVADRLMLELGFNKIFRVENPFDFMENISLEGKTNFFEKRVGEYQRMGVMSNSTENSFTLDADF
Procedure: (§1) CF1 male mice (~30 g) were implanted with 2×10^6 Ehrlich ascites tumor cells, intraperitoneally on Day 0. Compound I was suspended by homogenation in 0.05% polysorbate.80-water and administered intraperitoneally at 10 and 20 mg/kg for 9 days to determine its effectiveness for inhibition of tumor growth. Mice were sacrificed on Day 10, and the ascites fluid was collected from the peritoneal cavity. The volume and ascrit (packed cell volume) were determined for each animal and the percent inhibition of tumor growth was calculated. For the metabolic studies, mice were treated on Days 8 and 9 with 10 mg/kg of Compound I, intraperitoneally. […]
(§2) Carbamyl phosphate synthetase activity was determined using the reaction medium of Kalman et al [Am. […] Citrulline formed from ornithine was measured at 490 nm by the method of Archibald [J. Biol. Chem., 156, 121 (1944)]. […] The ^14 CO2 generated in 15 min was trapped in 1M KOH and counted. Thymidylate synthetase activity was determined using a post-mitochondrial supernatant (9000 g×10 min) and 5 μCi of 5-^3 H-deoxyuridine monophosphate (14 Ci/mmol) according to the method of Kampf et al [ J. Med. Chem., 19, 903 (1976)]. ^14 C-Formate incorporation into purines was determined by the method of Spassova et al [Biochem. Pharmacol., 25, 923 (1976)] using 0.5 μCi of ^14 C-formic acid (52.0 mCi/mmol). […] The Rf value for xanthine monophosphate was scraped and counted. […]

[2] = system: formate incorporation into purine; assay: In vitro formate incorporation into purine (supernatant fraction); type: biochemical, mouse; settings: read-out: ID50, formate incorporation into purine
Procedure: as §1, §2

[3] = biological target: T2, orotidine monophosphate decarboxylase (Mus musculus, UniProt P13439); assay: In vitro orotidine monophosphate decarboxylase activity; type: biochemical; settings: 0.25 to 1.0 mM
T2 construct: OMP decarboxylase domain of UMP synthase
T2 sequence (P13439 whole entry, the tested form may be a part): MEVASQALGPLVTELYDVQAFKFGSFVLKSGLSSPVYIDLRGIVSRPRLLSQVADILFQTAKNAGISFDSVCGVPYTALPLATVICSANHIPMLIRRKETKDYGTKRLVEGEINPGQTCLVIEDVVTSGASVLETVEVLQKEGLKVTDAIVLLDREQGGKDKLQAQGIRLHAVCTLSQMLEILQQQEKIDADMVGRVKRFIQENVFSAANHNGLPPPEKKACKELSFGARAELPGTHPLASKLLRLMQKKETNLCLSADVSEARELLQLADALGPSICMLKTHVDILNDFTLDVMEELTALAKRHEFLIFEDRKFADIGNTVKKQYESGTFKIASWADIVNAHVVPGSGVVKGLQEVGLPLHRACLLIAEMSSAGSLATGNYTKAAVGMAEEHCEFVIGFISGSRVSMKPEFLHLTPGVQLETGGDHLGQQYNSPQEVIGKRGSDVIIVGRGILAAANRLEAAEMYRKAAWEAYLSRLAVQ
Procedure: as §1, §2

[4] = biological target: T3, dihydrofolate reductase (Mus musculus, UniProt P00375); assay: In vivo dihydrofolate reductase activity
T3 sequence (P00375 1-187): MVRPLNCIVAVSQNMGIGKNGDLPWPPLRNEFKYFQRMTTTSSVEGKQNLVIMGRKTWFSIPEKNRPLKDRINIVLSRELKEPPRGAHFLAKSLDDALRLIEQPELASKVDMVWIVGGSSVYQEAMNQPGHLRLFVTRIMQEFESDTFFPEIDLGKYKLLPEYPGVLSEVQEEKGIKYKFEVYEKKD
Procedure: as §1, §2

{Cu[(CH3)3 N.BH2 CO2 ]2.(CH3)3 N.BH2 COOH} [Compound I]
ribonucleotide reductase inhibition [1]: not inhibited | pIC50 [2]: 2.77 | orotidine monophosphate decarboxylase inhibition [3]: not inhibited | Dihydrofolate reductase activity inhibited [4]: 25% | Dihydrofolate reductase activity ([4]; 10 mg/kg/day I.P. on Days 8 and 9): 75 ± 6 % Control
